The text below walks through data of patent publication US20180303807A1, “ANDROGEN RECEPTOR LIGANDS” (DUKE UNIVERSITY, priority 2015, published 2018).

Molecules are shown by their SMILES. Some results are limits rather than exact numbers.

The first test concerns the target T1, AR (Homo sapiens, UniProt P10275).
T1 construct: expressed in transfected cells; host or cells: CV1 cells
T1 sequence (P10275 1-920): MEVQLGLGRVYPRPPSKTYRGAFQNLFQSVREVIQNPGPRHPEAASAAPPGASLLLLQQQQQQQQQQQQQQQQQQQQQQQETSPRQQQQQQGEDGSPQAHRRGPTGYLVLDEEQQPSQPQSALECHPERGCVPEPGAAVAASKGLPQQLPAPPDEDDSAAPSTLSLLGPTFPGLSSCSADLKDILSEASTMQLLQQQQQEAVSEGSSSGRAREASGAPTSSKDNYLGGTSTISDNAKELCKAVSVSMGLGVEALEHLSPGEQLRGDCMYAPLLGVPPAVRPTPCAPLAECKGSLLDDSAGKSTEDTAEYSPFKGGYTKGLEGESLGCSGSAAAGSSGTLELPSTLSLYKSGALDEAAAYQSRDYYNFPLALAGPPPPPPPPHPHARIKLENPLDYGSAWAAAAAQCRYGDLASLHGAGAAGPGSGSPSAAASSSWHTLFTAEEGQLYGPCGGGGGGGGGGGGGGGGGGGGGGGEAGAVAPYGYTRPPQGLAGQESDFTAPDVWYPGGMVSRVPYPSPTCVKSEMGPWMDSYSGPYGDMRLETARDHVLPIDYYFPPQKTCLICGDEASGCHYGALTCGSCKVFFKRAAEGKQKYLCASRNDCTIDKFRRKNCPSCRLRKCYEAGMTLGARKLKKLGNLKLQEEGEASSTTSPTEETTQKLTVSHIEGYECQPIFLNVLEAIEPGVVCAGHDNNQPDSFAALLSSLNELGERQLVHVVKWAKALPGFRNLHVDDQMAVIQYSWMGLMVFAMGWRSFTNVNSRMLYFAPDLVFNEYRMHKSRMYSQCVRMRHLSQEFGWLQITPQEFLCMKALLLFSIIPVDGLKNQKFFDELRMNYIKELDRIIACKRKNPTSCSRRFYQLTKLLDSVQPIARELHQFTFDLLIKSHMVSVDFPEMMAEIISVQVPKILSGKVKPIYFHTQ
The test can be described thus: Reporter gene assay, AR transcriptional (MMTV-Luc) in CV1 cells. It counts as cell-based. The settings on record: pcDNA-AR + MMTV-Luc, 0.1 nM R1881 plus test compound, 24 hrs. The procedure: Reporter Gene Assay (IC50 determination, Table 2, B1-B3). CV1 cells were seeded into 96-well cell culture plates and transfected with Lipofectin. For AR transcriptional assays, the DNA mixture consisted of pcDNA-AR, MMTV-Luc (androgen responsive reporter gene), and Renilla-Luc (for assessing transfection efficiency and toxicity). Following overnight incubation, cells were induced with hormone (0.1 nM R1881 (synthetic AR agonist) plus increasing concentrations of test compound) for 24 hrs. Cells were lysed and luciferase activity was quantified using Dual Luciferase Reagent (DLR). IC50 determination was assessed using GraphPad Prism software.
In general terms: In a reporter assay the amount or activity of a reporter protein is the signal.
As for `CC1(C)CC(=O)C2=C(C1)Nc1ccc3ncccc3c1C2c1ccc(S(C)(=O)=O)cc1` (stereo not shown) [Compound A36], the “B1 = AR transcriptional IC50 (μM) in CV1 cells” value is reported as “Inactive”.

With `CC1(C)CC(=O)C2=C(C1)Nc1c(ccc3ncccc13)C2c1ccc([N+](=O)[O-])cc1` (stereo not shown) [Compound A44], the “B1 = AR transcriptional IC50 (μM) in CV1 cells” value is given as “Inactive”.

The same test, now with this note: pcDNA-AR + MMTV-Luc, 0.1 nM R1881 plus test compound, 24 hrs, read-out: B1 = AR transcriptional IC50 (μM) in CV1 cells.
For `CC1(C)CC(=O)C2=C(C1)Nc1ccc3cn[nH]c3c1C2c1ccc(Cl)s1` (stereo not shown) [Compound A108], the IC50 (usually the concentration that gives 50% inhibition) came out at 1.2 µM.

Take `Cc1ccsc1C1C2=C(CC(C)(C)CC2=O)Nc2ccc3nccnc3c21` (stereo not shown) [Compound A115]: the concentration for half-maximal inhibition (IC50) is over 10 µM.

Take `CC1(C)CC(=O)C2=C(C1)Nc1ccc3ncccc3c1C2c1ccc(F)cc1` (stereo not shown) [Compound A40]: the IC50 was 1.7 µM.

With `CC1CC(=O)C2=C(C1)Nc1ccc3ncccc3c1C2c1ccc([N+](=O)[O-])cc1` (stereo not shown) [Compound A26], the concentration for half-maximal inhibition (IC50) came to 0.43 µM.

Take `CC1(C)CC(=O)C2=C(C1)Nc1ccc3ncccc3c1C2c1ccc(C#N)cn1` (stereo not shown) [Compound A56]: the IC50 came to 1.2 µM.

For the molecule `CC1(C)CC(=O)C2=C(C1)Nc1cc(N3CCCC3)ccc1C2c1ccc(Br)s1` (racemic) [Compound A98, (±)-9-(5-bromothiophen-2-yl)-3,3-dimethyl-6-(pyrrolidin-1l-yl)-3,4,9,10-tetrahydroacridin-1(2H)-one], the concentration for half-maximal inhibition (IC50) is over 10 µM.

For `CC1(C)CC(=O)C2=C(C1)Nc1ccc3cn[nH]c3c1C2c1ccc(F)c(F)c1` (stereo not shown) [Compound A77], the IC50 is over 10 µM.

On to `CC1(C)CC(=O)C2=C(C1)Nc1ccc3ncccc3c1C2c1ccc(Br)nc1` (stereo not shown) [Compound A34], for which the IC50 was 1.9 µM.

As for `Cc1ccc(C2C3=C(CC(C)(C)CC3=O)Nc3ccc4ccccc4c32)s1` (stereo not shown) [Compound A106, 9,9-dimethyl-12-(5-methylthiophen-2-yl)-8,9,10,12-tetrahydrobenzo[a]acridin-11(7H)-one], the IC50 came out at 0.8 µM.

Take `O=C1CCC2=C1C(c1ccc([N+](=O)[O-])cc1)c1c(ccc3ncccc13)N2` (stereo not shown) [Compound A47]: the IC50 came out at 9.9 µM.

Consider `Cc1ccc(C2C3=C(CC(C)(C)CC3=O)Nc3cc(N4CCCC4)ccc32)s1` (stereo not shown) [Compound A105], for which the IC50 is over 10 µM.

As to `Cc1ccc2c3c(ccc2n1)NC1=C(C(=O)CC(C)(C)C1)C3c1ccc(F)c(F)c1` (racemic) [Compound A81, (±)-12-(3,4-difluorophenyl)-3,9,9-trimethyl-8,9,10,12-tetrahydrobenzo[b][4,7]phenanthrolin-11(7H)-one], the IC50 was over 10 µM.

As to `CN1CC(=O)C2=C(C1)Nc1ccc3ncccc3c1C2c1ccc(F)c(F)c1` (racemic) [Compound A54, (±)-12-(3,4-difluorophenyl)-9-methyl-8,9,10,12-tetrahydropyrido[4,3-b][4,7]phenanthrolin-11(7H)-one], the IC50 was over 10 µM.

Turning to `CC1(C)CC(=O)C2=C(C1)Nc1ccc3nc(C(=O)O)ccc3c1C2c1ccc(F)c(F)c1` (racemic) [Compound A80, (±)-12-(3,4-difluorophenyl)-9,9-dimethyl-11-oxo-7,8,9,10,11,12-hexahydrobenzo[b][4,7]phenanthroline-3-carboxylic acid], the IC50 is over 10 µM.

As to `CC1(C)CC(=O)C2=C(C1)Nc1ccc3ncccc3c1C2c1ccc(C(=O)O)cc1` (stereo not shown) [Compound A37], the 50% inhibitory concentration (IC50) is 38 µM.

Turning to `CC1(C)CC(=O)C2=C(C1)Nc1ccc3ncccc3c1C2c1ccc(Cl)c(Cl)c1` (stereo not shown) [Compound A31], the IC50 was determined as 2.2 µM.

`CC1(C)CC(=O)C2=C(C1)Nc1ccc3ncccc3c1C2c1cncnc1` (stereo not shown) [Compound A58]: the IC50 is over 10 µM.

With `CC1(C)CC(=O)C2=C(C1)Nc1ccc3cn[nH]c3c1C2c1ccc(Br)s1` (stereo not shown) [Compound A112], the IC50 came out at 3.2 µM.

With `Cc1ccc(C2C3=C(CC(C)(C)CC3=O)Nc3ccc4ncccc4c32)nc1` (stereo not shown) [Compound A35], the IC50 worked out at 58 µM.

As to `CC1(C)CC(=O)C2=C(C1)Nc1ccc3ncccc3c1C2c1ccc([N+](=O)[O-])c(O)c1` (stereo not shown) [Compound A38], the IC50 amounted to 3.3 µM.

For the molecule `CC1(C)CC(=O)C2=C(C1)Nc1ccc3ncccc3c1C2c1ccc(F)c(F)c1` (stereo not shown) [Compound A32], the half-maximal inhibitory concentration (IC50) came out at 0.4 µM.

With `C[n+]1cccc2c3c(ccc21)NC1=C(C(=O)CC(C)(C)C1)C3c1ccc(F)c(F)c1` (racemic) [Compound A87, (±)-12-(3,4-difluorophenyl)-4,9,9-trimethyl-11-oxo-7,8,9,10,11,12-hexahydrobenzo[b][4,7]phenanthrolin-4-ium iodide], the half-inhibitory concentration (IC50) came out at 1.3 µM.

`CC1(C)CC(=O)C2=C(C1)Nc1ccc3cnccc3c1C2c1ccc([N+](=O)[O-])cc1` (stereo not shown) [Compound A43]: the concentration for half-maximal inhibition (IC50) turned out to be 9.1 µM.

Regarding `CC1(C)CC(=O)C2=C(C1)Nc1ccc3ccccc3c1C2c1cc2ccccc2s1` (racemic) [Compound A95, (±)-12-(benzo[b]thiophen-2-yl)-9,9-dimethyl-8,9,10,12-tetrahydrobenzo[a]acridin-11(7H)-one], the IC50 was 0.5 µM.

Consider `CC1(C)CC(=O)C2=C(C1)Nc1ccc3ncncc3c1C2c1ccc(F)c(F)c1` (racemic) [Compound A86, (±)-12-(3,4-difluorophenyl)-9,9-dimethyl-8,9,10,12-tetrahydropyrimido[5,4-a]acridin-11(7H)-one], for which the IC50 turned out to be 1.8 µM.

As for `CC1(C)CC(=O)C2=C(C1)Nc1ccc3ncccc3c1C2c1cnccn1` (stereo not shown) [Compound A65], the IC50 was over 10 µM.

For `CC1(C)CC(=O)C2=C(C1)Nc1ccc3nc(C#N)ccc3c1C2c1ccc(F)c(F)c1` (racemic) [Compound A52, (±)-12-(3,4-difluorophenyl)-9,9-dimethyl-11-oxo-7,8,9,10,11,12-hexahydrobenzo[b][4,7]phenanthroline-3-carbonitrile], the 50% inhibitory concentration (IC50) is over 10 µM.

For the molecule `CC1(C)CC(=O)C2=C(C1)Oc1ccc3ccccc3c1C2c1ccc(F)c(F)c1` (racemic) [Compound A89, (±)-12-(3,4-difluorophenyl)-9,9-dimethyl-9,10-dihydro-8H-benzo[a]xanthen-11(12H)-one], the half-maximal inhibitory concentration (IC50) stood at 0.4 µM.

On to `CC1(C)CC(=O)C2=C(C1)Nc1ccc3nccnc3c1C2c1ccc(Cl)s1` (racemic) [Compound A99, (±)-12-(5-chlorothiophen-2-yl)-9,9-dimethyl-8,9,10,12-tetrahydropyrazino[2,3-a]acridin-11(7H)-one], for which the half-inhibitory concentration (IC50) was found to be 0.6 µM.

Regarding `CC1(C)CC(=O)C2=C(C1)Nc1ccc3ncccc3c1C2c1ccc(Br)cn1` (stereo not shown) [Compound A33], the concentration for half-maximal inhibition (IC50) amounted to 3.4 µM.

Regarding `CC1(C)CC(=O)C2=C(C1)Nc1ccc3ncccc3c1C2c1ccc(B(O)O)c(F)c1` (stereo not shown) [Compound A39], the concentration for half-maximal inhibition (IC50) came out at 52 µM.

As for `CC1(C)CC(=O)C2=C(C1)Nc1ccc3ncccc3c1C2c1ccc(C(F)(F)F)cc1` (stereo not shown) [Compound A41], the 50% inhibitory concentration (IC50) came out at 1.9 µM.

In the case of `CC(C)C1CC(=O)C2=C(C1)Nc1ccc3ncccc3c1C2c1ccc([N+](=O)[O-])cc1` (stereo not shown) [Compound A45], the IC50 came to 0.3 µM.

Consider `Cc1ccc(C2C3=C(CC(C)(C)CC3=O)Nc3ccc4nccnc4c32)s1` (racemic) [Compound A104, (±)-9,9-dimethyl-12-(5-methylthiophen-2-yl)-8,9,10,12-tetrahydropyrazino[2,3-a]acridin-11(7H)-one], for which the 50% inhibitory concentration (IC50) was determined as 2 µM.

As to `CC1(C)CC(=S)C2=C(C1)Nc1ccc3ncccc3c1C2c1ccc(F)c(F)c1` (racemic) [Compound A82, (±)-12-(3,4-difluorophenyl)-9,9-dimethyl-8,9,10,12-tetrahydrobenzo[b][4,7]phenanthroline-11(7H)-thione], the IC50 is 9.1 µM.

Consider `CC1(C)CC(=O)C2=C(C1)Nc1cc(N3CCCC3)ccc1C2c1cc2ccccc2s1` (racemic) [Compound A94, (±)-9-(benzo[b]thiophen-2-yl)-3,3-dimethyl-6-(pyrrolidin-1-yl)-3,4,9,10-tetrahydroacridin-1(2H)-one], for which the half-maximal inhibitory concentration (IC50) is over 10 µM.

For the molecule `CC1(C)CC(=O)C2=C(C1)Nc1ccc3ncccc3c1C2c1cccs1` (stereo not shown) [Compound A66, 9,9-dimethyl-12-(thiophen-2-yl)-8,9,10,12-tetrahydrobenzo[b][4,7]phenanthrolin-11(7H)-one], the IC50 was determined as 4.1 µM.

Turning to `CC1(C)CC2=C(C(c3ccc(F)c(F)c3)c3c(ccc4ncccc34)N2)S(=O)(=O)C1` (racemic) [Compound A53, (±)-12-(3,4-difluorophenyl)-9,9-dimethyl-8,9,10,12-tetrahydro-7H-thiopyrano[2,3-b][4,7]phenanthroline 11,11-dioxide], the IC50 was over 10 µM.
